# US20220324835A1 (Nurix Therapeutics, Inc., priority 2018, published 2022)
# Where two headings read alike, the source gives them in different places.
# Experiments:
# [1] = tested on: primary human total T-cells; assay: T-cell activation assessed by cytokine secretion (GM-CSF, IFNγ, TNFα); format: cell-based
# How it was run: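 Readouts are fold change versus compound-free cells under the same stimulation: plate-bound anti-CD3 (OKT3, 10 μg/mL coating) alone or with soluble anti-CD28 at 5 μg/mL, for 48 h. Isolated human total T cells (1×10^5/well) got inhibitor 1 h beforehand at concentrations such as 10, 1.11 or 0.123 μM. Measured: GM-CSF/IFNγ/TNFα secretion, surface CD69, proliferation by dye dilution.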
# primary human NK cells = assay: NK cell activation assessed by cytokine secretion (coculture with K562 NucRed target cells); format: cell-based; conditions: for fold induction at 0.625 µM: 0.625 μM compound; for fold induction at 2.5 µM: 2.5 μM compound
# How it was run: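 Primary NK cells from donor PBMC, IL-2 (60 ng/mL) overnight, then Cbl-b inhibitor (e.g. 10, 1 or 0.1 μM; DMSO <0.1%) for 1 h before 6 h coculture with K562 NucRed at effector:target ratios such as 5:1, 1:1 or 1:5. Supernatant IFNγ, TNFα, MIP1β measured by ELISA or Luminex; fold change over inhibitor-free baseline, >2.0-fold positive.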
# [2] = CD3/CD28 stimulation, read-out: GM-CSF secretion
# [3] = CD3/CD28 stimulation, read-out: IFNγ secretion
# [4] = CD3/CD28 stimulation, read-out: TNFα secretion
# [5] = CD3 alone stimulation, read-out: GM-CSF secretion
# [6] = CD3 alone stimulation, read-out: IFNγ secretion
# [7] = CD3 alone stimulation, read-out: TNFα secretion
# [8] = K562, NK cells cocultured with K562 NucRed, 1:1 E/T, read-out: IFNγ secretion, fold change over baseline
# [9] = K562, NK cells cocultured with K562 NucRed, 1:1 E/T, read-out: TNFα secretion, fold change over baseline
# [10] = K562, NK cells cocultured with K562 NucRed, 1:1 E/T, 10 μM compound, read-out: IFNγ secretion, fold change over baseline
# [11] = K562, NK cells cocultured with K562 NucRed, 1:1 E/T, 10 μM compound, read-out: TNFα secretion, fold change over baseline
# [12] = K562, 1:1 E/T, read-out: IFNγ secretion
# [13] = K562, 1:1 E/T, read-out: MIP1β secretion
# [14] = K562, 1:1 E/T, read-out: TNFα secretion
# [15] = K562, 1:1 E/T, 10 μM, read-out: IFNγ secretion
# [16] = K562, 1:1 E/T, 10 μM, read-out: MIP1β secretion
# [17] = K562, 1:1 E/T, 10 μM, read-out: TNFα secretion
# [18] = K562, 5:1 E/T, read-out: IFNγ secretion
# [19] = K562, 5:1 E/T, read-out: MIP1β secretion
# [20] = K562, 5:1 E/T, read-out: TNFα secretion
# [21] = K562, 5:1 E/T, 10 μM, read-out: IFNγ secretion
# [22] = K562, 5:1 E/T, 10 μM, read-out: MIP1β secretion
# [23] = K562, 5:1 E/T, 10 μM, read-out: TNFα secretion
Compound,"fold induction at 1.11 µM [1, 2]","fold induction at 1.11 µM [1, 3]","fold induction at 1.11 µM [1, 4]","fold induction at 10 µM [1, 2]","fold induction at 10 µM [1, 3]","fold induction at 10 µM [1, 4]","fold induction at 1.11 µM [1, 5]","fold induction at 1.11 µM [1, 6]","fold induction at 1.11 µM [1, 7]","fold induction at 10 µM [1, 5]","fold induction at 10 µM [1, 6]","fold induction at 10 µM [1, 7]",fold induction at 0.625 µM (primary human NK cells; [8]),fold induction at 0.625 µM (primary human NK cells; [9]),fold induction at 2.5 µM (primary human NK cells; [8]),fold induction at 2.5 µM (primary human NK cells; [9]),fold induction at 10 µM (primary human NK cells; [10]),fold induction at 10 µM (primary human NK cells; [11]),further results
"C[C@H](Cc1nncn1C)c1cccc(N2Cc3c(ccnc3C3CC3)C2=O)c1 [Compound 257, 4-cyclopropyl-2-[3-[(1R)-1-methyl-2-(4-methyl-1,2,4-triazol-3-yl)ethyl]phenyl]-3H-pyrrolo[3,4-c]pyridin-1-one]",2.01 to 4,< 2,1.51 to 2,> 4,2.01 to 3,2.01 to 4,1.51 to 2,< 2,≤ 1.5,2.01 to 4,2.01 to 3,≤ 1.5,1.01 to 2,1.01 to 2,2.01 to 5,1.01 to 2,2.01 to 5,2.01 to 5,–
"CNCc1ccc(C(=O)Nc2cccc([C@H](C)Cc3nncn3C)c2)nc1C1CC1 [Compound 376, (R)-6-cyclopropyl-N-(3-(1-(4-methyl-4H-1,2,4-triazol-3-yl)propan-2-yl)phenyl)-5-((methylamino)methyl)picolinamide]",2.01 to 4,< 2,2.01 to 4,> 4,< 2,2.01 to 4,1.51 to 2,2.01 to 3,≤ 1.5,2.01 to 4,3.01 to 4,1.51 to 2,1.01 to 2,1.01 to 2,1.01 to 2,1.01 to 2,2.01 to 5,2.01 to 5,–
"Cn1cnnc1[C@@H]1C[C@@H]1c1cccc(N2Cc3c(cccc3C(F)(F)F)C2=O)c1 [Compound 282, 2-(3-((1S,2R)-2-(4-methyl-4H-1,2,4-triazol-3-yl)cyclopropyl)phenyl)-4-(trifluoromethyl)isoindolin-1-one]",1.51 to 2,< 2,≤ 1.5,2.01 to 4,2.01 to 3,2.01 to 4,≤ 1.5,< 2,≤ 1.5,2.01 to 4,2.01 to 3,≤ 1.5,1.01 to 2,1.01 to 2,1.01 to 2,1.01 to 2,2.01 to 5,2.01 to 5,–
"C[C@H](Sc1nncn1C)c1cccc(NC(=O)c2cc(C(=O)N3CC[C@H](O)C3)ccn2)c1 [Compound 140, 4-[[(3S)-3-hydroxypyrrolidin-1-yl]carbonyl]-N-[3-[(1S)-1-[(4-methyl-4H-1,2,4-triazol-3-yl)sulfanyl]ethyl]phenyl]pyridine-2-carboxamide]",2.01 to 4,2.01 to 3,2.01 to 4,> 4,> 4,2.01 to 4,2.01 to 4,3.01 to 4,1.51 to 2,2.01 to 4,> 4,2.01 to 4,< 1,< 1,< 1,< 1,1.01 to 2,< 1,–
"Cn1cnnc1C(F)(F)[C@](C)(F)c1cccc(N2Cc3c(cccc3C(F)(F)F)C2=O)c1 [Compound 296a, (R)-2-(3-(1,1,2-trifluoro-1-(4-methyl-4H-1,2,4-triazol-3-yl)propan-2-yl)phenyl)-4-(trifluoromethyl)isoindolin-1-one]",–,–,–,–,–,–,–,–,–,–,–,–,–,–,–,–,–,–,fold induction at 1 µM (primary human NK cells; [12]): 1.01 to 2; fold induction at 1 µM (primary human NK cells; [13]): < 1; fold induction at 1 µM (primary human NK cells; [14]): < 1; fold induction at 10 µM (primary human NK cells; [15]): 2.01 to 5; fold induction at 10 µM (primary human NK cells; [16]): < 1; fold induction at 10 µM (primary human NK cells; [17]): 1.01 to 2; fold induction at 1 µM (primary human NK cells; [18]): < 1; fold induction at 1 µM (primary human NK cells; [19]): < 1; fold induction at 1 µM (primary human NK cells; [20]): < 1; fold induction at 10 µM (primary human NK cells; [21]): 1.01 to 2; fold induction at 10 µM (primary human NK cells; [22]): < 1; fold induction at 10 µM (primary human NK cells; [23]): < 1
"C[C@H](Cc1nncn1C)c1cccc(NC(=O)c2nc(C(F)(F)F)c[nH]2)c1 [Compound 326, (R)-N-(3-(1-(4-methyl-4H-1,2,4-triazol-3-yl)propan-2-yl)phenyl)-4-(trifluoromethyl)-1H-imidazole-2-carboxamide]",1.51 to 2,< 2,≤ 1.5,2.01 to 4,2.01 to 3,2.01 to 4,1.51 to 2,< 2,≤ 1.5,2.01 to 4,2.01 to 3,1.51 to 2,1.01 to 2,1.01 to 2,2.01 to 5,2.01 to 5,2.01 to 5,2.01 to 5,–
"Cn1cnnc1[C@@H]1C[C@@H]1c1cccc(N2Cc3c(ccnc3C(F)(F)F)C2=O)c1 [Compound 369, 2-{3-[(1S,2R)-2-(4-methyl-4H-1,2,4-triazol-3-yl)cyclopropyl]phenyl}-4-(trifluoromethyl)-1H,2H,3H-pyrrolo[3,4-c]pyridin-1-one]",≤ 1.5,< 2,≤ 1.5,2.01 to 4,< 2,2.01 to 4,≤ 1.5,< 2,≤ 1.5,≤ 1.5,< 2,1.51 to 2,< 1,< 1,1.01 to 2,< 1,2.01 to 5,1.01 to 2,–
"C[C@H](Cc1nncn1C)c1cccc(NC(=O)c2ccnc(C(F)(F)F)n2)c1 [Compound 187, (R)-N-(3-(1-(4-methyl-4H-1,2,4-triazol-3-yl)propan-2-yl)phenyl)-2-(trifluoromethyl)pyrimidine-4-carboxamide]",–,–,–,–,–,–,–,–,–,–,–,–,–,–,–,–,–,–,fold induction at 1 µM (primary human NK cells; [12]): 1.01 to 2; fold induction at 1 µM (primary human NK cells; [13]): 1.01 to 2; fold induction at 1 µM (primary human NK cells; [14]): < 1; fold induction at 10 µM (primary human NK cells; [15]): 2.01 to 5; fold induction at 10 µM (primary human NK cells; [16]): 2.01 to 5; fold induction at 10 µM (primary human NK cells; [17]): 2.01 to 5; fold induction at 1 µM (primary human NK cells; [18]): 2.01 to 5; fold induction at 1 µM (primary human NK cells; [19]): 1.01 to 2; fold induction at 1 µM (primary human NK cells; [20]): 2.01 to 5; fold induction at 10 µM (primary human NK cells; [21]): > 5; fold induction at 10 µM (primary human NK cells; [22]): 2.01 to 5; fold induction at 10 µM (primary human NK cells; [23]): > 5
"C[C@H](Cc1nncn1C)c1ccnc(NC(=O)c2cccc(C(F)(F)F)n2)c1 [Compound 302, (R)-N-(4-(1-(4-methyl-4H-1,2,4-triazol-3-yl)propan-2-yl)pyridin-2-yl)-6-(trifluoromethyl)picolinamide]",–,–,–,–,–,–,–,–,–,–,–,–,< 1,1.01 to 2,1.01 to 2,1.01 to 2,2.01 to 5,1.01 to 2,–
